From ChEMBL document CHEMBL1201862, “PubChem BioAssay data set” (2004) come the findings set out here.

Values joined by “and” are separate entries in the source; they are usually repeats but may differ in a detail not shown here. Equal entries are not always repeated. Active and inactive are the calls of the source.

Assay [1] has as its target T1, Heat shock factor protein 1 (Mus musculus, UniProt P38532).
T1 sequence (P38532 whole entry): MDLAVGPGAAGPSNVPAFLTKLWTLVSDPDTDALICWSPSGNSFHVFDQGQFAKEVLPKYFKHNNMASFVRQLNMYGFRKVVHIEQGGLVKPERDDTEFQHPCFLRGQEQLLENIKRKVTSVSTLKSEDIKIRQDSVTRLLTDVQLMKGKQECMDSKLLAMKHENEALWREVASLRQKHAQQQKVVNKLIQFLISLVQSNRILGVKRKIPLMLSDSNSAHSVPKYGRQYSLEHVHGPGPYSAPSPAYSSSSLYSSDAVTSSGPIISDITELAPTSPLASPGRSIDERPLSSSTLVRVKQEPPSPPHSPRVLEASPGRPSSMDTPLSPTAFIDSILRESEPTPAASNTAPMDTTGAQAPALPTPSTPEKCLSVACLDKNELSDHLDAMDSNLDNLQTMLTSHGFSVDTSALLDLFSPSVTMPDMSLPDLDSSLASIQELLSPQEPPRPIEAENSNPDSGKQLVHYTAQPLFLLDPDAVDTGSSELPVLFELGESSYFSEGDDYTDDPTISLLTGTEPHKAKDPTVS
Put plainly: HSF1 potentiators in luciferase reporter cells, confirmation, cell-based, NIH3T3, luminescence, dose retest (AID 435004).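 Note: stress induced by proteasome inhibitor MG132 added 30 min after compound; luciferase reporter driven by HSF1 response element in NIH3T3 cells; actives raise luminescence as potentiators of the MG132 stress response.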 Type of assay: functional.

For assay [2], the target named is Botulinum neurotoxin type A (Clostridium botulinum (strain Hall / ATCC 3502 / NCTC 13319 / Type A), UniProt P0DPI1). Put plainly: High-throughput multiplex microsphere dose response for inhibitors of toxin protease, specifically Botulinum neurotoxin light chain A protease, compounds from Cherry Pick 01. Type of assay: functional. The conditions noted are these: read-out: EC50_MICROM.
Sequence of Botulinum neurotoxin type A (P0DPI1 2-448 limits assumed): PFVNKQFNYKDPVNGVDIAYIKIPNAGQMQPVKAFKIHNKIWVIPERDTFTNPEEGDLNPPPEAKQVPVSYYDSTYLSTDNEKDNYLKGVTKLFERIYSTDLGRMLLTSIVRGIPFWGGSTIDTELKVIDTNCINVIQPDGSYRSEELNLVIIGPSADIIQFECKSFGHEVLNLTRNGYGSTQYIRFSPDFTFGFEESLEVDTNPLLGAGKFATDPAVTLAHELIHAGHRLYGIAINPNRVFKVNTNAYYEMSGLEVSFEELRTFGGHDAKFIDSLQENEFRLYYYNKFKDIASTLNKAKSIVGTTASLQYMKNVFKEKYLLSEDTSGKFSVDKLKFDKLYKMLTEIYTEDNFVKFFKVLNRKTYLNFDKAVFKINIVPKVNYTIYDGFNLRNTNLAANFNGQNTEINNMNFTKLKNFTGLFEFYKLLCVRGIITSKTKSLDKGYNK

Assay [3] deals with Glycogen synthase kinase-3 alpha (Homo sapiens, UniProt P49840). Put plainly: Inhibition of Human GSK-3 alpha Activity Measured in Biochemical System Using Microfluidics - 2063-06_Inhibitor_Dose_DryPowder_Activity_Set2. [Related pubchem assays (depositor defined):AID2709].
Sequence of Glycogen synthase kinase-3 alpha (P49840 whole entry): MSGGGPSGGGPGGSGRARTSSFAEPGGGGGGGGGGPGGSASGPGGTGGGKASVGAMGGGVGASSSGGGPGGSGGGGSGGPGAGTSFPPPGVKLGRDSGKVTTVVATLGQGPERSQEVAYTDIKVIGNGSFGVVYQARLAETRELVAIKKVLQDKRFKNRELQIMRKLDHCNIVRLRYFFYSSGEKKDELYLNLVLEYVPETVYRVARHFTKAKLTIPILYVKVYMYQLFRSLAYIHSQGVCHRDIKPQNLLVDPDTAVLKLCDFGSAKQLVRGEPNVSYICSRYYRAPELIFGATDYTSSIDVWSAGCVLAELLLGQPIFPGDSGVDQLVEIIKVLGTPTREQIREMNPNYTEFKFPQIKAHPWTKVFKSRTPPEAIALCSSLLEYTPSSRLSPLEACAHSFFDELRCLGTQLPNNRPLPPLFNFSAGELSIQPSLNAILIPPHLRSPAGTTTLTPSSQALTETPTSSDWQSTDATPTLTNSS
Assay [4] concerns the target Glycogen synthase kinase-3 beta (Homo sapiens, UniProt P49841). As to the kind of experiment: Inhibition of Human GSK-3 beta Activity Measured in Biochemical System Using Microfluidics - 2063-05_Inhibitor_Dose_DryPowder_Activity_Set2. [Related pubchem assays (depositor defined):AID2709].
The target of assay [5] is Cyclin-dependent kinase 5/CDK5 activator 1 (Homo sapiens, UniProt Q00535). As to the kind of experiment: CDK5-p25 kinase inhibitors, specificity check, dose response, selectivity assay for GSK-3 alpha inhibitor project, biochemical, microfluidic mobility shift, dry powder (AID 588430).
Sequence of Cyclin-dependent kinase 5/CDK5 activator 1 (Q00535 whole entry): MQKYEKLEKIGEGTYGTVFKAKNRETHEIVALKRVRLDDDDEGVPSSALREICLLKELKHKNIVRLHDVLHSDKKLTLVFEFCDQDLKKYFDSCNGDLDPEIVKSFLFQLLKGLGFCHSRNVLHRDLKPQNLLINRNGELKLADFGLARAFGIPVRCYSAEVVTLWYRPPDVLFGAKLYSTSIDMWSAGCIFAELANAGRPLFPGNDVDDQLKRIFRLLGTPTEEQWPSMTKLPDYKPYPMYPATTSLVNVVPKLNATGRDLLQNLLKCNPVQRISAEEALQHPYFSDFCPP
Sequence of Cyclin-dependent kinase 5/CDK5 activator 1 (Q15078 whole entry, further chain): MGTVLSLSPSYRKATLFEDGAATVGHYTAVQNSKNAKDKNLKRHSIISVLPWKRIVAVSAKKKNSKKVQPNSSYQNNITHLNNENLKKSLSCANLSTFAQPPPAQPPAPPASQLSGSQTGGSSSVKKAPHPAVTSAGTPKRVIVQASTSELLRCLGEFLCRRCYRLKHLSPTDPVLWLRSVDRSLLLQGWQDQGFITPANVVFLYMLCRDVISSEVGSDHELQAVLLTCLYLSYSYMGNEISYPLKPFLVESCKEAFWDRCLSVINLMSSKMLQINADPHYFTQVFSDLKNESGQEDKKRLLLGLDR
Assay [6] has as its target T2, Streptokinase A (Streptococcus pyogenes serotype M1, UniProt P10520).
T2 sequence (P10520 whole entry): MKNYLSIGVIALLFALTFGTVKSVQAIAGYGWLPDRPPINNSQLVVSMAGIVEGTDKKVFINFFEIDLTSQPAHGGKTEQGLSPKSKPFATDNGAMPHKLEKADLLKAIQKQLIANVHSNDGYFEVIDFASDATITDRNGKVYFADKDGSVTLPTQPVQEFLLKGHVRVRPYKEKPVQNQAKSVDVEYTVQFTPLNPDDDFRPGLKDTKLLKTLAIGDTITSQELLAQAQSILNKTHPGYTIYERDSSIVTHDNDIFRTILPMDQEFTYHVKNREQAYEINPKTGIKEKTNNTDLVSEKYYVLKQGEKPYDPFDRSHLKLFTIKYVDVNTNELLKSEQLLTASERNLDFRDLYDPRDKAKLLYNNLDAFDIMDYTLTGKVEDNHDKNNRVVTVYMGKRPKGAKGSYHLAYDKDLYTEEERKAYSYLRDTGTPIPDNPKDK
Put plainly: S. pyogenes streptokinase expression inhibitors, potency, dose response, plasminogen activation absorbance, OD405 (AID 1914).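 Note: secreted streptokinase activity via plasminogen activation per viability signal from cell pellet.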 Type of assay: functional, Streptococcus pyogenes M1 GAS.

The target of assay [7] is Beta-galactosidase (Escherichia coli, UniProt Q8VNN2). As to the kind of experiment: beta-galactosidase enzyme inhibitors and activators, dose response, artefact control for CCR6 antagonist project, biochemical, E. coli enzyme, set 3 (AID 504712). Type of assay: functional.
Sequence of Beta-galactosidase (Q8VNN2 whole entry): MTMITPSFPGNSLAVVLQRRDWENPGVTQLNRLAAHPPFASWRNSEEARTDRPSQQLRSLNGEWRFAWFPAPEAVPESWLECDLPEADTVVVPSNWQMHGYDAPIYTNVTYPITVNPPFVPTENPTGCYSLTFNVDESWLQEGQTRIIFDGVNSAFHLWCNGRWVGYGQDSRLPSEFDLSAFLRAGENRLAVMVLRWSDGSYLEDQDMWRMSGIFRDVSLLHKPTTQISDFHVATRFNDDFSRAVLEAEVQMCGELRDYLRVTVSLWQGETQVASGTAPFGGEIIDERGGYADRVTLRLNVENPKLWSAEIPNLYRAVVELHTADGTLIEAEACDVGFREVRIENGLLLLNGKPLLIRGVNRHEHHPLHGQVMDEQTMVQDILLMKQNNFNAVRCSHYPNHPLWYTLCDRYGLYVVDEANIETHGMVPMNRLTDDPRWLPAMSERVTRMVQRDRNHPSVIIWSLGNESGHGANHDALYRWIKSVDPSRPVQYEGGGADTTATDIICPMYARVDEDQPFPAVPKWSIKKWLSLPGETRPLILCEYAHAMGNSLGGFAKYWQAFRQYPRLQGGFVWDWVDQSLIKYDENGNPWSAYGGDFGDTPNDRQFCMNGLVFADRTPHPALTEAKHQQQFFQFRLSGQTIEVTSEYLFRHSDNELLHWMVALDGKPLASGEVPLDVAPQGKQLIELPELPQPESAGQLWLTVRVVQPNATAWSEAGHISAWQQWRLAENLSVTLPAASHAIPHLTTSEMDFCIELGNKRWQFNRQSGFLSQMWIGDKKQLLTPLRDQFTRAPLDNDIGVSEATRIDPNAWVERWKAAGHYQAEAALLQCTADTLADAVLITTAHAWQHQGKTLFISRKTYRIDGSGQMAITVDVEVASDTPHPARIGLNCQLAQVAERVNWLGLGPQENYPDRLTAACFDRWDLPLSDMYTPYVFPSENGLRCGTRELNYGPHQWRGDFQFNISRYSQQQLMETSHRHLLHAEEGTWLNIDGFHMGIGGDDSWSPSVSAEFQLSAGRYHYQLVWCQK
Assay [8] has as its target C-C chemokine receptor type 6 (Homo sapiens, UniProt P51684). As to the kind of experiment: CCR6 receptor antagonists, dose response, cell-based, luminescent beta-arrestin readout (AID 504728). Type of assay: functional.
A short description of assay [9]: cells. Type of assay: functional.
The test system of assay [10] is Streptococcus sp. 'group A'. Put plainly: growth inhibition of control SK(-) GAS strain, dose response, counter-screen for streptokinase expression inhibitor project, luminescence, kanamycin, BacTiterGlo, confirmation (AID 1900). Type of assay: functional, organism-based.
Assay [11] is described as follows: A Cell Based Secondary Assay to Explore Cytotoxicity in HepG2 Cells of Compounds that Modulate Mycobacterium tuberculosis in Media Containing Glycerol versus Media without Glycerol (2). Type of assay: functional.
Assay [12] is described as follows: Vero cell cytotoxicity, cytotoxicity control for M. tuberculosis inhibitor project, purified and synthesized samples, set 3 (AID 504684). Type of assay: functional. The conditions noted are these: […].
The nature of assay [13]: A Cell Based Secondary Assay to Explore Cytotoxicity in THP-1 Cells of Compounds that Modulate Mycobacterium tuberculosis in Media Containing Glycerol versus Media without Glycerol (2). Type of assay: functional.
Assay [14] can be described thus: microbe, parasite or virus in culture. Type of assay: functional. The conditions noted are these: Mycobacterium tuberculosis.
The nature of assay [15]: THP-1 cell cytotoxicity, dose response, cytotoxicity control for non-replicating M. tuberculosis project (AID 489025). Type of assay: functional.
Assay [16] is described as follows: HepG2 cell cytotoxicity, dose response, cytotoxicity control for non-replicating M. tuberculosis project (AID 489018). Type of assay: functional. The following applies: Mycobacterium tuberculosis.
The test system of assay [17] is Streptococcus. Put plainly: Group A Streptococcus viability loss, dose response, counter-screen for streptokinase expression inhibitor project, luminescence, BacTiterGlo (AID 1915).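 Note: potency for reduction of bacterial viability or growth.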 Type of assay: functional, organism-based.
A short description of assay [18]: Vero E6 cell cytotoxicity, dose response, cytotoxicity control for non-replicating M. tuberculosis project, secondary assay (AID 492998). Type of assay: functional, VeroE6. The conditions noted are these: Vero C1008.

Sequence of Glycogen synthase kinase-3 beta (P49841 whole entry): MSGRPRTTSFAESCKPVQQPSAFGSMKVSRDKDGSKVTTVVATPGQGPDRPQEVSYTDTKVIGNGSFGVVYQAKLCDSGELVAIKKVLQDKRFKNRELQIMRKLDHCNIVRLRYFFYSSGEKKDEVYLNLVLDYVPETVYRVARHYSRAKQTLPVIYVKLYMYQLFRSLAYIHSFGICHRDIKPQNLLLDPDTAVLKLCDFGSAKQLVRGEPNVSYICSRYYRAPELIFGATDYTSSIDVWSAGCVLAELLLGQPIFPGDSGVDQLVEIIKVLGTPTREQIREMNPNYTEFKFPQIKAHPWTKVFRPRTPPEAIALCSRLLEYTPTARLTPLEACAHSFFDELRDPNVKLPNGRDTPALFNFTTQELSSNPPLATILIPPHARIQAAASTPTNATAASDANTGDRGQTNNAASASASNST
Sequence of C-C chemokine receptor type 6 (P51684 whole entry): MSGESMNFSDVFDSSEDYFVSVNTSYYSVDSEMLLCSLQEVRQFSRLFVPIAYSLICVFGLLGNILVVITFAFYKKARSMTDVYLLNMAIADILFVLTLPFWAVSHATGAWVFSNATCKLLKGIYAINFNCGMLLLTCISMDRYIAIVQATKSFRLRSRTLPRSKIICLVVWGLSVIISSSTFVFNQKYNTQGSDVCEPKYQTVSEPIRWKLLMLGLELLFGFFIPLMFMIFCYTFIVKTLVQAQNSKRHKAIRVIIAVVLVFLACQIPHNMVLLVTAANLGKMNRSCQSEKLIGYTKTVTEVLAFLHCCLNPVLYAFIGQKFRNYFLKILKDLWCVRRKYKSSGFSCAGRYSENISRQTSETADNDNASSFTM

On to `COc1ccc(C2CC(c3cccs3)=NN2c2nc(C)c(C(C)=O)s2)cc1OC` (stereo not drawn), for which the EC50 in assay [1] is 111 µM (active); in assay [2], 7.9 µM (active) and 4.8 µM (active).
As to `CCCN(CCC)Cc1c(C(=O)N/N=C/c2ccoc2)nnn1-c1nonc1N`, the AC50 in assay [3] is 1.24 µM (active); in assay [4], 0.457 µM (active); in assay [5], 40.6 µM (active).
Take `Cc1nn2c(NCc3ccccn3)cc(C(C)C)nc2c1-c1ccccc1`: the EC50 in [6] was 6.95 µM (active); in assay [10], 5.57 µM (active); in [17] it was 23.2 µM (active). Also, the IC50 was > 66.6 µM (inactive) in [7], > 66.6 µM (inactive) in assay [8] and 1.51 µM (active) in assay [9]. Also, the CC50 in [11] was 0.46 µM (active); in assay [12], 11.1 µM (active); in assay [13], 4.39 µM (active); in assay [14], 24.5 µM (active); in [15], 9.09 µM (active); in assay [16] it was 6.6 µM (active). Also, the CC50 in assay [18] was 15.8 µM (active).
